Assay results published in patent US20250101034A1, “COMPOSITIONS USEFUL FOR MODULATING SPLICING” (SKYHAWK THERAPEUTICS, INC., priority 2021, published 2025).
pIC50: −log10 of the molar value.

Assays:
total ATXN3 protein = assay: ATXN3 total protein assay (MSD, SK-N-MC cells); type: cell-based, Human; conditions: 48 hours incubation, read-out: ATXN3 Potency - Protein IC50
Description: Human neuroblastoma SK-N-MC cells were seeded at 10,000 cells/well in 384 well plates one day prior to compound treatment. The concentrations of compounds were tested at appropriate doses ranging from 30 μM to 0.6 nM. After incubation for 48 hours, the cells were lysed with 25 μL of lysis buffer containing protease inhibitors, and total ATXN3 protein levels were assessed by Mesoscale Discovery (MSD) assay developed with one pair of anti-ATXN3 antibodies. The capture and detect antibodies were raised in mouse and rabbit respectively. Anti-rabbit MSD-ST antibody was used for secondary antibody.
ATXN3 recombinant protein was used for standards. The readouts were captured with 35 μL of MSD read buffer and multi-array 384-well high binding plates.

[1] = system: ATXN3 transcripts containing exon 4 (E4E5); assay: ATXN3 quantitative splicing assay (qPCR, SK-N-MC cells); type: cell-based; conditions: Homo sapiens, 24 h treatment, qPCR E4E5 primers/probe, read-out: ATXN3 Potency - Splicing E4E5 IC50
Description: Human neuroblastoma SK-N-MC cells were plated in 384-well plates at 20,000 cells/well. Twenty-four hours after plating, cells were treated with compounds for 24 h at appropriate concentrations ranging from 30 μM to 0.6 nM (0.3% DMSO). Treated cells were lysed in 15 μL of lysis buffer, and cDNA was synthesized using the Fast Advanced Cells-to-Ct kit. Two μL of each cDNA was used in qPCR reactions to confirm the exon 4 skipped transcripts of ATXN3. A second set of primers/probe E4E5 was used to detect the transcripts containing exon 4. The third set of primers/probe E8E9 was used to detect total gene level of ATXN3. The qPCR reactions were prepared in 384-well plates in 10 μL volume, using TaqMan™ Fast Advanced Master Mix with primers and probes shown in the table below. Reactions were run in a Quant Studio 6 qPCR instrument with default settings.
The primers and probes are listed below in Table 4.

Structure (SMILES)	pIC50 (total ATXN3 protein)	pIC50 [1]
Cc1c(C[C@@H](N)CO)sc2c(NCc3ccsc3)cnnc12 [Compound 7, (2R)-2-amino-3-(7-methyl-4-{[(thiophen-3-yl)methyl]amino}thieno[3,2-c]pyridazin-6-yl)propan-1-ol]	5.30 to 6.30	5.30 to 6.30
Cc1c(C[C@H]2CCCN2)sc2c(NCc3cccs3)cnnc12 [Compound 69, 7-methyl-6-[(2R)-pyrrolidin-2-ylmethyl]-N-(thiophen-2-ylmethyl)thieno[3,2-c]pyridazin-4-amine]	4.40 to 5.00	4.40 to 5.00
C[C@H](N)Cc1sc2c(NCc3ccco3)cnnc2c1Br [Compound 100, 6-[(2S)-2-aminopropyl]-7-bromo-N-[(furan-2-y1)methyl]thieno[3,2-c]pyridazin-4-amine]	6.30 to 7.00	6.30 to 7.00
C#Cc1c(C[C@H](C)N)sc2c(NCc3ccco3)cnnc12 [Compound 115, 6-[(2S)-2-aminopropyl]-7-ethynyl-N-[(furan-2-y1)methyl]thieno[3,2-c]pyridazin-4-amine]	6.30 to 7.00	7.00 to 11.00
Cc1c(C[C@H](C)N)sc2c(NCc3cccs3)c(Br)nnc12 [Compound 66, 6-[(2S)-2-aminopropyl]-3-bromo-7-methyl-N-[(thiophen-2-yl)methyl]thieno[3,2-c]pyridazin-4-amine]	4.40 to 5.00	4.40 to 5.00
Cc1c(C[C@H](C)N)sc2c(NCc3nccs3)cnnc12 [Compound 6, 6-[(2S)-2-aminopropyl]-7-methyl-N-[(1,3-thiazol-2-yl)methyl]thieno[3,2-c]pyridazin-4-amine]	5.30 to 6.30	5.30 to 6.30
Cc1c(C[C@@H](N)CO)sc2c(NCc3nccs3)cnnc12 [Compound 5, (2R)-2-amino-3-(7-methyl-4-{[(1,3-thiazol-2-yl)methyl]amino}thieno[3,2-c]pyridazin-6-yl)propan-1-ol]	4.40 to 5.00	4.40 to 5.00
Cc1c(C[C@H](C)N)sc2c(NCn3cccc3)cnnc12 [Compound 43, 6-[(2S)-2-aminopropyl]-7-methyl-N-[(1H-pyrrol-1-yl)methyl]thieno[3,2-c]pyridazin-4-amine]	5.00 to 5.30	5.00 to 5.30
C[C@H](N)Cc1sc2c(NCc3ccco3)cnnc2c1Cl [Compound 101, 6-[(2S)-2-aminopropyl]-7-chloro-N-[(furan-2-yl)methyl]thieno[3,2-c]pyridazin-4-amine]	6.30 to 7.00	6.30 to 7.00
COC[C@H](N)Cc1sc2c(NCc3cccs3)cnnc2c1Br [Compound 136, 6-[(2R)-2-amino-3-methoxypropyl]-7-bromo-N-[(thiophen-2-yl)methyl]thieno[3,2-c]pyridazin-4-amine]	6.30 to 7.00	6.30 to 7.00
C[C@H](N)Cc1sc2c(NCc3cccs3)cnnc2c1Cl [Compound 36, 6-[(2S)-2-aminopropyl]-7-chloro-N-[(thiophen-2-yl)methyl]thieno[3,2-c]pyridazin-4-amine]	6.30 to 7.00	6.30 to 7.00
Cc1c(C[C@@H](N)CCO)sc2c(NCc3ccco3)cnnc12 [Compound 29, (3S)-3-amino-4-(4-{[(furan-2-yl)methyl]amino}-7-methylthieno[3,2-c]pyridazin-6-yl)butan-1-ol]	5.30 to 6.30	5.30 to 6.30
Cc1c(CC#N)sc2c(NCc3cccs3)cnnc12 [Compound 98, 2-{7-methyl-4-[(thiophen-2-ylmethyl)amino]thieno[3,2-c]pyridazin-6-yl}acetonitrile]	4.40 to 5.00	4.40 to 5.00
Brc1csc2c(NCc3cccs3)cnnc12 [Compound 63, 7-bromo-N-(thiophen-2-ylmethyl)thieno[3,2-c]pyridazin-4-amine]	4.40 to 5.00	4.40 to 5.00
Cc1c(C[C@H](C)N)sc2c(NCc3cccs3)c(F)nnc12 [Compound 97, 6-[(2S)-2-aminopropyl]-3-fluoro-7-methyl-N-[(thiophen-2-yl)methyl]thieno[3,2-c]pyridazin-4-amine]	6.30 to 7.00	6.30 to 7.00
Cc1c([C@H](C)[C@@H](C)N)sc2c(NCc3cccs3)cnnc12 [Compound 99, 6-[(2R,3R)-3-aminobutan-2-yl]-7-methyl-N-[(thiophen-2-yl)methyl]thieno[3,2-c]pyridazin-4-amine]	4.40 to 5.00	4.40 to 5.00
Cc1c(C[C@H](C)N)sc2c(NCc3sccc3F)cnnc12 [Compound 10, 6-[(2S)-2-aminopropyl]-N-[(3-fluorothiophen-2-yl)methyl]-7-methylthieno[3,2-c]pyridazin-4-amine]	5.30 to 6.30	5.30 to 6.30
Cc1c(C[C@H](C)N)sc2c(NCc3ccc(Br)s3)cnnc12 [Compound 62, 6-[(2S)-2-aminopropyl]-N-[(5-bromothiophen-2-yl)methyl]-7-methylthieno[3,2-c]pyridazin-4-amine]	5.00 to 5.30	5.00 to 5.30
Cc1nnc2c(C)c(C[C@H](C)N)sc2c1NCc1cccs1 [Compound 19, 6-[(2S)-2-aminopropyl]-3,7-dimethyl-N-[(thiophen-2-yl)methyl]thieno[3,2-c]pyridazin-4-amine]	4.40 to 5.00	4.40 to 5.00
Cc1c(C[C@@H](N)CS(C)(=O)=O)sc2c(NCc3ccco3)cnnc12 [Compound 32, 6-[(2R)-2-amino-3-methanesulfonylpropyl]-N-[(furan-2-yl)methyl]-7-methylthieno[3,2-c]pyridazin-4-amine]	4.40 to 5.00	4.40 to 5.00
C[C@H](N)Cc1sc2c(NCc3cccs3)cnnc2c1O [Compound 90, 6-[(2S)-2-aminopropyl]-4-[(thiophen-2-ylmethyl)amino]thieno[3,2-c]pyridazin-7-ol]	4.40 to 5.00	4.40 to 5.00

Second part, the molecule after the results:

pIC50 (total ATXN3 protein)	pIC50 [1]	Structure (SMILES)
5.00 to 5.30	5.30 to 6.30	Cc1c(C[C@@H](N)CC#N)sc2c(NCc3cccs3)cnnc12 [Compound 27, (3S)-3-amino-4-(7-methyl-4-{[(thiophen-2-yl)methyl]amino}thieno[3,2-c]pyridazin-6-yl)butanenitrile]
4.40 to 5.00	5.00 to 5.30	Cc1c(C[C@@H](N)C[S+](C)[O-])sc2c(NCc3cccs3)cnnc12 (stereo partly drawn) [Compound 59, 6-[(2R)-2-amino-3-methanesulfinylpropyl]-7-methyl-N-[(thiophen-2-yl)methyl]thieno[3,2-c]pyridazin-4-amine]
5.30 to 6.30	5.30 to 6.30	Cc1c(C[C@@H](N)[C@@H](C)F)sc2c(NCc3cccs3)cnnc12 [Compound 111, 6-[(2R,3R)-2-amino-3-fluorobutyl]-7-methyl-N-[(thiophen-2-yl)methyl]thieno[3,2-c]pyridazin-4-amine]
4.40 to 5.00	4.40 to 5.00	Cc1c(C[C@@H](N)C[S+](C)[O-])sc2c(NCc3ccco3)cnnc12 (stereo partly drawn) [Compound 33, 6-[(2R)-2-amino-3-methanesulfinylpropyl]-N-[(furan-2-yl)methyl]-7-methylthieno[3,2-c]pyridazin-4-amine]
5.30 to 6.30	5.30 to 6.30	Cc1c(C[C@@H](N)CCO)sc2c(NCc3cccs3)cnnc12 [Compound 61, (3S)-3-amino-4-(7-methyl-4-{[(thiophen-2-yl)methyl]amino}thieno[3,2-c]pyridazin-6-yl)butan-1-ol]
5.30 to 6.30	5.00 to 5.30	Cc1c(C[C@H](N)C[C@H]2CC2(F)F)sc2c(NCc3cccs3)cnnc12 [Compound 129, 6-[(2R)-2-amino-3-[(1S)-2,2-difluorocyclopropyl]propyl]-7-methyl-N-(thiophen-2-ylmethyl)thieno[3,2-c]pyridazin-4-amine]
5.30 to 6.30	5.30 to 6.30	Cc1c(C[C@@H](N)CC2CC2)sc2c(NCc3cccs3)cnnc12 [Compound 68, 6-[(2S)-2-amino-3-cyclopropylpropyl]-7-methyl-N-[(thiophen-2-yl)methyl]thieno[3,2-c]pyridazin-4-amine]
5.00 to 5.30	5.00 to 5.30	Cc1c(CC(N)CC2(F)CC2)sc2c(NCc3cccs3)cnnc12 (stereo not shown) [Compound 117, 6-[2-amino-3-(1-fluorocyclopropyl)propyl]-7-methyl-N-[(thiophen-2-yl)methyl]thieno[3,2-c]pyridazin-4-amine]
5.30 to 6.30	5.30 to 6.30	Cc1c(C[C@H](N)C[C@@H]2CC2(F)F)sc2c(NCc3cccs3)cnnc12 [Compound 130, 6-[(2R)-2-amino-3-[(1R)-2,2-difluorocyclopropyl]propyl]-7-methyl-N-(thiophen-2-ylmethyl)thieno[3,2-c]pyridazin-4-amine]
5.30 to 6.30	5.30 to 6.30	Cc1c(C[C@@H](N)COC(F)F)sc2c(NCc3cccs3)cnnc12 [Compound 133, 6-[(2R)-2-amino-3-(difluoromethoxy)propyl]-7-methyl-N-[(thiophen-2-y1)methyl]thieno[3,2-c]pyridazin-4-amine]
5.30 to 6.30	5.30 to 6.30	CSC[C@H](N)Cc1sc2c(NCc3cccs3)cnnc2c1C [Compound 58, 6-[(2R)-2-amino-3-(methylsulfanyl)propyl]-7-methyl-N-(thiophen-2-ylmethyl)thieno[3,2-c]pyridazin-4-amine]
